The record followed here is article PMC11020070, “Discovery of Protease-Activated Receptor 4 (PAR4)-Tethered Ligand Antagonists Using Ultralarge Virtual Screening” (ACS Pharmacology & Translational Science, 2024).

Molecules are shown by their SMILES. Like-named read-outs stand apart in the source and are kept apart here.

The target of this assay is T1, PAR4 (Homo sapiens, UniProt Q96RI0).
T1 sequence (Q96RI0 18-385): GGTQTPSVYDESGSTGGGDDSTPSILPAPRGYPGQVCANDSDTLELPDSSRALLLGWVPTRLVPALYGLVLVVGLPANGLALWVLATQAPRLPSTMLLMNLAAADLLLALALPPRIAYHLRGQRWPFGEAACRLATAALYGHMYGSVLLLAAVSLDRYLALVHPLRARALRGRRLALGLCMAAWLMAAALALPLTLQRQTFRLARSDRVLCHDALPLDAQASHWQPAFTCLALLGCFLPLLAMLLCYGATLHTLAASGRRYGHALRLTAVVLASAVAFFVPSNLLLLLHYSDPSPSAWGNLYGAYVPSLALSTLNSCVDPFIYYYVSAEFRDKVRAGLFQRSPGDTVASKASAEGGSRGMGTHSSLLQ
Kind of assay: Human platelet activity assay, flow cytometry, γ-thrombin activation. The assay is classed as cell-based. Further details: endogenous in cells; host or cells: washed human platelets from healthy volunteers. The protocol:
To test the antagonistic effect of the compounds on PAR4, a flow cytometry assay of human platelets was employed. Each compound was screened at 10 μM in human platelets using flow cytometry for GPIIbIIIa activation (PAC1) and P-selectin (CD62p) expression as previously described.[4] Activation of GPIIbIIIa allows interaction with divalent fibrinogen or multivalent von Willebrand factor, leading to platelet aggregation.[41] PAR4 stimulation also triggers α-granule secretion containing P-selectin.[5] […] Platelets were treated with each test compound or vehicle control DMSO before activating with γ-thrombin (100 nM) or PAR4 agonist peptide mimetic (200 μM, “PAR4-AP” AYPGKF) for 30 min. γ-thrombin activates PAR4 but not PAR1.[42]
Activation of washed human platelets was monitored by flow cytometry for the detection of PAC1 (GPIIbIIIa activation) and CD62p (P-selectin expression) binding as previously described.[4] Human platelets were obtained from healthy volunteers. The Vanderbilt University Internal Review Board approved these studies. Informed consent was obtained from all individuals prior to the blood draw. 10 mL of whole blood was collected into 0.32% Na citrate. Platelet-rich plasma was collected after room-temperature centrifugation at 1100 rpm for 15 min on a Thermo Forma 400 centrifuge (Thermo Fisher, Waltham, MA). 1/10 volume of acid citrate dextrose (ACD) buffer was added to the collected supernatant and incubated for 10 min. After centrifugation at 2400 rpm for 10 min, the platelet pellet was resuspended in 1 mL Tyrode’s buffer (“TBB”: 15 mM HEPES, 0.33 mM NaH2PO4, pH 6.4, 138 mM NaCl, 2.7 mM KCl, 1 mM MgCl2, 5.5 mM dextrose, 0.1% bovine serum albumin). Platelets were collected, counted on a Z1 Coulter Particle Counter (Beckman Coulter, Brea, CA), and diluted in TBB to 1.5 × 10^7 platelets/mL. 60 uL of platelets were aliquoted to each tube and preincubated with 40 μL of TBB with antibodies PAC1 FITC (Becton Dickinson, Franklin Lakes NJ) and P-selectin PE (Becton Dickinson) and either test compound antagonist or DMSO vehicle control for 20 min. Platelets were then activated with 100 nM γ-thrombin or other agonists for 30 min. Samples were then fixed by adding 100 μL of 2% paraformaldehyde. After 30 min, samples were diluted by adding 300 μL of phosphate-buffered saline (PBS) and stored at 4C. Data were collected on a three-laser BD LSRFortessa (Becton Dickinson) and analyzed with FlowJo software (FlowJo LLC, Ashland, OR). The mean fluorescence intensity (geometric) of PE and FITC was determined from 30,000 events after compensation correction. Data were normalized to vehicle (DMSO) controls.
Compounds were screened for inhibition activity against human PAR4 using 100 nM γ-thrombin or 200 μM PAR4-AP in a single-point assay (10 μM test compound).
On the technique in general: In flow cytometry, cells or beads pass a laser one at a time.

The mark [1] stands for this setting: human platelets, 100 nM γ-thrombin, GPIIbIIIa activation (PAC1), read-out: Human Platelets PAC1 IC50.
The mark [2] stands for this setting: human platelets, 100 nM γ-thrombin, P-selectin (CD62p), read-out: Human Platelets P-Sel IC50.
Setting [3] is: Table 4 summary, read-out: human PAR4 IC50.

Consider `Cc1nc(NC(=O)c2cc(-c3ccccc3)n(-c3ccccc3)n2)n[nH]1` [Compound 7], for which the inhibition at 10 µM (10 μM compound, 100 nM γ-thrombin, human platelets, read-out: inhibition of platelet activation against γ-thrombin) is roughly 50%. Besides, the IC50 is, setting by setting: under setting [1], 2280 nM; under setting [2], 2730 nM; (γ-thrombin activation of PAR4, human platelets, read-out: IC50, concentration-response curve (CRC)) 2300 nM.

Regarding `Cc1cc(C(=O)Nc2n[nH]c(OC(F)F)n2)nn1-c1ccccc1` [Compound 9], the IC50 under setting [3] is 583 nM, the IC50 under setting [1] came to 583 nM and the IC50 under setting [2] is 629 nM.

`Cn1nc(C(=O)Nc2n[nH]c(-c3c(F)cccc3F)n2)cc1C1CC1` [Compound 12]: the IC50 under setting [3] came out at 134 nM, the IC50 under setting [1] worked out at 134 nM and the IC50 under setting [2] was determined as 150 nM.

With `O=C(Nc1nc[nH]n1)c1nn(-c2ccccc2)c2c1CCC2` [Compound 17], the IC50 under setting [3] worked out at 502 nM, the IC50 under setting [1] was 502 nM and the IC50 under setting [2] was determined as 599 nM.

As to `O=C(Nc1n[nH]c(-c2ccc(F)cc2F)n1)c1nn(-c2ccccc2)c2c1CCCC2` [Compound 31], the IC50 was 117 nM under setting [1] and 135 nM under setting [2].

Turning to `COc1cccc(-c2nc(NC(=O)c3nn(-c4ccccc4)c4c3CCCC4)n[nH]2)c1` [Compound 32], the IC50 reads like this: under setting [3], 120 nM; under setting [1], 120 nM; under setting [2], 178 nM.

One may read the inhibition as the relative decrease from the control value, in per cent.
